| Structure (SMILES) | melting point [°C] |
| --- | --- |
| CC(C)C(O)c1cccc(N2CCN(CC[C@H]3CC[C@H](NC(=O)CC#N)CC3)CC2)c1 (stereo partly drawn) [Example 575, 2-cyano-N-[4-(2-{4-[3-(1-hydroxy-2-methylpropyl)phenyl]piperazin-1-yl}ethyl)cyclohexyl]acetamide] | 119 |
| CCOCC(=O)N[C@H]1CC[C@H](CCN2CCN(c3cc(C)c(F)cc3Cl)CC2)CC1 [Example 579, N-(4-{2-[4-(2-Chloro-4-fluoro-5-methylphenyl)piperazin-1-yl]ethyl}cyclohexyl)-2-ethoxyacetamide] | 132 |
| CC(=O)CN1CCC(CCN2CCN(c3cc(F)cc(Cl)c3)CC2)CC1 [Example 581, 1-(4-{2-[4-(3-Chloro-5-fluorophenyl)piperazin-1-yl]ethyl}piperidin-1-yl)propan-2-one] | 107 |
| COc1ccc(N2CCN(CC[C@H]3CC[C@H](NC(=O)CCCC#N)CC3)CC2)cc1 [Example 582, 4-Cyano-N-(4-{2-[4-(4-methoxyphenyl)piperazin-1-yl]ethyl}cyclohexyl)butanamide] | 200 |
| CC(=O)CN1CCC(CCN2CCN(c3ccc4c(c3)OCO4)CC2)CC1 [Example 584, 1-{4-[2-(4-Benzo[1,3]dioxol-5-ylpiperazin-1-yl)ethyl]piperidin-1-yl}propan-2-one] | 113 |
| N#CCC(=O)N[C@H]1CC[C@@H](CCN2CCN(c3cc(C(F)(F)F)ccc3F)CC2)CC1 [Example 586, 2-Cyano-N-(4-{2-[4-(2-fluoro-5-trifluoromethylphenyl)piperazin-1-yl]ethyl}cyclohexyl)acetamide] | 152 |
| CC(=O)CN1CCC(CCN2CCN(c3ccc(F)c(Cl)c3)CC2)CC1 [Example 592, 1-(4-{2-[4-(3-Chloro-4-fluorophenyl)piperazin-1-yl]ethyl}piperidin-1-yl)propan-2-one] | 92 |
| N#CCC(=O)N[C@H]1CC[C@H](CCN2CCN(c3ccc(F)c(Cl)c3)CC2)CC1 [Example 594, N-(4-{2-[4-(3-Chloro-4-fluorophenyl)piperazin-1-yl]ethyl}cyclohexyl)-2-cyanoacetamide] | 176 |

Second part, the compound after the results:

| melting point [°C] | Structure (SMILES) |
| --- | --- |
| 231 | N#CCC(=O)N[C@H]1CC[C@H](CCN2CCN(c3cc(F)c(C(F)(F)F)c(F)c3)CC2)CC1 [Example 574, 2-Cyano-N-(4-{2-[4-(3,5-difluoro-4-trifluoromethylphenyl)piperazin-1-yl]ethyl}cyclohexyl) acetamide] |
| 75 | CC(=O)CN1CCC(CCN2CCN(c3ccc4c(c3)CCCC4)CC2)CC1 [Example 576] |
| 100 | CCOCC(=O)N[C@H]1CC[C@H](CCN2CCN(c3cc(C)cc(Cl)c3)CC2)CC1 [Example 577, N-(4-{2-[4-(3-Chloro-5-methylphenyl)piperazin-1-yl]ethyl}cyclohexyl)-2-ethoxyacetamide] |
| 167 | COCCCC(=O)N[C@H]1CC[C@H](CCN2CCN(c3cc(C)cc(Cl)c3)CC2)CC1 [Example 578, N-(4-{2-[4-(3-Chloro-5-methylphenyl)piperazin-1-yl]ethyl}cyclohexyl)-4-methoxybutanamide] |
| 171 | COCCCC(=O)N[C@H]1CC[C@H](CCN2CCN(c3cc(C)c(F)cc3Cl)CC2)CC1 [Example 580, N-(4-{2-[4-(2-Chloro-4-fluoro-5-methylphenyl)piperazin-1-yl]ethyl}cyclohexyl)-4-methoxybutanamide] |
| 104 | CC(=O)CN1CCC(CCN2CCN(c3ccc(C(F)(F)F)cc3)CC2)CC1 [Example 587, 1-(4-{2-[4-(4-Trifluoromethylphenyl)piperazin-1-yl]ethyl}pipericin-1-yl)propan-2-one] |
| 142 | N#CCCCC(=O)N[C@H]1CC[C@H](CCN2CCN(c3ccc(F)c(Cl)c3)CC2)CC1 [Example 598, N-(4-{2-[4-(3-Chloro-4-fluorophenyl)piperazin-1-yl]ethyl}cyclohexyl)-4-cyanobutanamide] |

Source: patent US8802678B2, “Carbonylated (aza) cyclohexanes as dopamine D3 receptor ligands” (Bioprojet, priority 2006, dated 2014)
